Measurements reported in patent publication US20050037446A1, “Agents that recognize src when phosphorylated at serine 17” (priority 2001, published 2005).

How the values were obtained:
Format in all cases: cell-based
Rap1 = Rap1 activation affinity assay, Hek293 cells; details: 10 μM; for Effect of inhibitor on isoproterenol's activation of endogenous Rap1: 20 minutes
Method: The Rap1 activation affinity assay was performed as follows. A GST fusion protein of the Rap1-binding domain of RalGDS (GST-RalGDS, Dr. Bos, Utrecht University, The Netherlands) was expressed in E. coli following induction by isopropyl-1thio-β-D-galactopyranoside. Active Rap1 was isolated as previously described (Franke et al., EMBO J. 16:252-9, 1997). Briefly, equivalent amounts of supernatants (500 μg) were incubated with GST-RalGDS-Rap1 binding domain coupled to glutathione beads. Following a one hour incubation at 4° C., beads were pelleted and rinsed threes times with ice-cold lysis buffer. The protein was eluted from the beads using 2× Laemmli buffer and applied to a 12% SDS-polyacrylamide gel. Proteins were tansferred to PVDF membrane (Millipore Corporation, Bedford, Mass.), blocked in 5% milk for one hour and, probed with either α-Rap1/Krev-1 (Santa Cruz Biotechnology Inc., Santa Cruz, Calif.) or Flag antibody (Sigma, St Louis, Mo.) overnight at 4° C., followed by an HRP-conjugated anti-rabbit secondary antibody (or anti-mouse secondary for anti-Flag western blots). Proteins were detected using enhanced chemiluminescence.
Hek293 cells (ATCC) were cultured in DMEM plus 10% fetal calf serum, penicillin/streptomycin, and L-glutamine at 37° C. in 5% CO2. Cells were maintained in serum-free DMEM for 16 hours at 37° C. in 5% CO2 prior to treatment with H89 (10 μM) or PP2 (10 μM) for 20 minutes, and then treated with isoproterenol (10 μM) for 5 minutes. Cell lysates were prepared, and a Rap1 activation affinity assay performed as described in Example 1. […] This activation required Src family kinases (SFKs) as it was blocked by the inhibitor PP2.
The mechanism of ERK activation by isoproterenol in Hek293 cells was determined as follows. Hek293 cells were transfected with Flag-Rap1 along with pcDNA3, SrcS17A, SrcS17D, or SrcWT as described above. […]

ERK1/2 = experiment: ERK phosphorylation Western blot, Hek293 cells; details: 10 μM, 20 minutes pretreatment
Method: To examine the downstream consequences of Src-dependent signaling in Hek293 cells, ERK activation was measured using pERK antibodies (pERK1/2). Hek293 cells received no pretreatment or were pretreated for 20 minutes with H89 (10 μM), PP2 (10 μM), or LY (10 μM), and stimulated for 5 minutes with isoproterenol (10 μM), Forskolin (10 μM), or 100 ng/ml EGF, using the methods described above. Cell lysates were analyzed by Western blotting for the presence of pERK1/2 (New England Biolabs) or total ERK2 (Santa Cruz Biotechnology) as a control for protein loading.
To determine the role of PKA phosphorylation of Src serine 17 in ERK activation by cAMP, Hek293 cells were transfected with myc-ERK2 in the presence or absence of SrcS17A or SrcS17D, and stimulated with 10 μM isoproterenol. MycERK2 was immunoprecipitated from cell lysates using an agarose-coupled Myc antibody followed by western blotting for phospho-ERK (pMycERK2, upper panel) or total MycERK2 with a Myc antibody, as a control for protein loading.

Cb1 = Cb1 tyrosine phosphorylation (immunoprecipitation/Western blot), NIH3T3 cells; details: 10 μM, 20 minutes
Method: To determine the role of C3G and its complex in Rap1 activation, NIH3T3 cells were grown and treated for 20 minutes in the presence or absence of H89 (10 μM) or PP2 [AG1879; 4-amino-5-(4-chlorophenyl)-7-(t-butyl)pyazolo[3,4-d]pyrimidine, LY294002 [2-(4-Morpholinyl)-8-phenyl-4H-1-bemzopyran-4-one] (10 μM, Cal Biochem), treated with Forskolin (10 μM, Cal Biochem) for five minutes, and cell lysates prepared, as described above. Endogenous Cb1 was immunoprecipitated using a Cb1 antibody (Santa Cruz Biotechnology Inc.) from cell lysates and analyzed by Western blot for tyrosine phosphorylation, using a pTyr antibody (Santa Cruz Biotechnology Inc.) as described above. Briefly, for immunoprecipitation of Cb1, equal amounts of cell lysate per condition were precipitated at 4° C. for 4 to 6 hours in lysis buffer. Proteins were resolved by SDS-PAGE, blotted onto PVDF membranes and probed with the appropriate antibodies. All Western blots and immunoprecipitations were performed at least three times.

O=S(=O)(NCCNC/C=C/c1ccc(Br)cc1)c1cccc2cnccc12 [H89, N-[2(Bromocimamylamino)ethyl]-5-isoquinolinesulfonamide]
Effect of inhibitor on isoproterenol's activation of endogenous Rap1 (Rap1): PKA-dependent | Effect of inhibitor on isoproterenol's phosphorylation of ERK (ERK1/2): inhibited | Effect on Forskolin-stimulated Cb1 tyrosine phosphorylation (Cb1): inhibited

CC(C)(C)n1nc(-c2ccc(Cl)cc2)c2c(N)ncnc21 [PP2, 4-amino-5-(4-chlorophenyl)-7-(t-butyl)pyazolo[3,4-d]pyrimidine]
Effect of inhibitor on isoproterenol's activation of endogenous Rap1 (Rap1): blocked | Effect of inhibitor on isoproterenol's phosphorylation of ERK (ERK1/2): inhibited | Effect on Forskolin-stimulated Cb1 tyrosine phosphorylation (Cb1): inhibited

CC(C)NCC(O)c1ccc(O)c(O)c1 (stereo not shown) [isoproterenol]
Activation of endogenous Rap1 (Rap1; 5 minutes): activated endogenous Rap1
